Values of other authors, collected in article PMC3433420 (PLoS ONE, 2012).
Where two headings read alike, the source gives them in different places.

Target: SH2 and PTB domains
Settings: cited from earlier work
Source text: Supplement pone.0044471.s022.xlsx, sheet "Most recent PM interactions" | column: Kd || Supplement pone.0044471.s022.xlsx, sheet "All original PM interactions" | column: Kd

DNPDpYQQDFFPKd [ErbB1 pY1172, N-terminally rhodamine-labeled 13-mer phosphopeptide]
Kd (protein ABL2, ref Jones et al. 2006 / Kaushansky et al. Mol Biosys 2008 / Kaushansky et al. Chem and Biol 2008): 490 nM
Kd (protein BCAR3, ref Jones et al. 2006 / Kaushansky et al. Mol Biosys 2008 / Kaushansky et al. Chem and Biol 2008): 300 nM
Kd (protein BLK, ref Jones et al. 2006 / Kaushansky et al. Mol Biosys 2008 / Kaushansky et al. Chem and Biol 2008): 750 nM
Kd (protein CRK, ref Jones et al. 2006 / Kaushansky et al. Mol Biosys 2008 / Kaushansky et al. Chem and Biol 2008): 410 nM
Kd (protein FGR, ref Jones et al. 2006 / Kaushansky et al. Mol Biosys 2008 / Kaushansky et al. Chem and Biol 2008): 550 nM
Kd (protein GRB10, ref Jones et al. 2006 / Kaushansky et al. Mol Biosys 2008 / Kaushansky et al. Chem and Biol 2008): 1290 nM
Kd (protein GRB14, ref Jones et al. 2006 / Kaushansky et al. Mol Biosys 2008 / Kaushansky et al. Chem and Biol 2008): 1250 nM
Kd (protein ITK, ref Jones et al. 2006 / Kaushansky et al. Mol Biosys 2008 / Kaushansky et al. Chem and Biol 2008): 1410 nM
Kd (protein LYN, ref Jones et al. 2006 / Kaushansky et al. Mol Biosys 2008 / Kaushansky et al. Chem and Biol 2008): 1590 nM
Kd (protein NCK2, ref Jones et al. 2006 / Kaushansky et al. Mol Biosys 2008 / Kaushansky et al. Chem and Biol 2008): 380 nM
Kd (protein PIK3R1-N, ref Jones et al. 2006 / Kaushansky et al. Mol Biosys 2008 / Kaushansky et al. Chem and Biol 2008): 400 nM
Kd (protein PIK3R1-NC, ref Jones et al. 2006 / Kaushansky et al. Mol Biosys 2008 / Kaushansky et al. Chem and Biol 2008): 550 nM
Kd (protein PIK3R2-N, ref Jones et al. 2006 / Kaushansky et al. Mol Biosys 2008 / Kaushansky et al. Chem and Biol 2008): 390 nM
Kd (protein PIK3R2-NC, ref Jones et al. 2006 / Kaushansky et al. Mol Biosys 2008 / Kaushansky et al. Chem and Biol 2008): 320 nM
Kd (protein PIK3R3-NC, ref Jones et al. 2006 / Kaushansky et al. Mol Biosys 2008 / Kaushansky et al. Chem and Biol 2008): 850 nM
Kd (protein PLCG2-N, ref Jones et al. 2006 / Kaushansky et al. Mol Biosys 2008 / Kaushansky et al. Chem and Biol 2008): 840 nM
Kd (protein PLCG2-NC, ref Jones et al. 2006 / Kaushansky et al. Mol Biosys 2008 / Kaushansky et al. Chem and Biol 2008): 670 nM
Kd (protein RASA1-N, ref Jones et al. 2006 / Kaushansky et al. Mol Biosys 2008 / Kaushansky et al. Chem and Biol 2008): 1140 nM
Kd (protein RASA1-NC, ref Jones et al. 2006 / Kaushansky et al. Mol Biosys 2008 / Kaushansky et al. Chem and Biol 2008): 1170 nM
Kd (protein SH2B3, ref Jones et al. 2006 / Kaushansky et al. Mol Biosys 2008 / Kaushansky et al. Chem and Biol 2008): 1600 nM
Kd (protein SH2B, ref Jones et al. 2006 / Kaushansky et al. Mol Biosys 2008 / Kaushansky et al. Chem and Biol 2008): 1820 nM
Kd (protein SH2D3C, ref Jones et al. 2006 / Kaushansky et al. Mol Biosys 2008 / Kaushansky et al. Chem and Biol 2008): 1910 nM
Kd (protein SHB, ref Jones et al. 2006 / Kaushansky et al. Mol Biosys 2008 / Kaushansky et al. Chem and Biol 2008): 1790 nM
Kd (protein SHC1-PTB, ref Jones et al. 2006 / Kaushansky et al. Mol Biosys 2008 / Kaushansky et al. Chem and Biol 2008): 40 nM
Kd (protein SHC2-PTB, ref Jones et al. 2006 / Kaushansky et al. Mol Biosys 2008 / Kaushansky et al. Chem and Biol 2008): 1310 nM
Kd (protein SLA, ref Jones et al. 2006 / Kaushansky et al. Mol Biosys 2008 / Kaushansky et al. Chem and Biol 2008): 2000 nM
Kd (protein SRC, ref Jones et al. 2006 / Kaushansky et al. Mol Biosys 2008 / Kaushansky et al. Chem and Biol 2008): 470 nM
Kd (protein SUPT6H, ref Jones et al. 2006 / Kaushansky et al. Mol Biosys 2008 / Kaushansky et al. Chem and Biol 2008): 1030 nM
Kd (protein SYK-C, ref Jones et al. 2006 / Kaushansky et al. Mol Biosys 2008 / Kaushansky et al. Chem and Biol 2008): 870 nM
Kd (protein SYK-NC, ref Jones et al. 2006 / Kaushansky et al. Mol Biosys 2008 / Kaushansky et al. Chem and Biol 2008): 1280 nM
Kd (protein TNS3, ref Jones et al. 2006 / Kaushansky et al. Mol Biosys 2008 / Kaushansky et al. Chem and Biol 2008): 740 nM
Kd (protein TNS4, ref Jones et al. 2006 / Kaushansky et al. Mol Biosys 2008 / Kaushansky et al. Chem and Biol 2008): 330 nM
Kd (protein VAV2, ref Jones et al. 2006 / Kaushansky et al. Mol Biosys 2008 / Kaushansky et al. Chem and Biol 2008): 220 nM
Kd (protein VAV3, ref Jones et al. 2006 / Kaushansky et al. Mol Biosys 2008 / Kaushansky et al. Chem and Biol 2008): 2000 nM
Kd (protein YES1, ref Jones et al. 2006 / Kaushansky et al. Mol Biosys 2008 / Kaushansky et al. Chem and Biol 2008): 100 nM

PLTCSPQPEpYVNQPDVR [ErbB2 1139]
Kd (Protein ABL1, most recent PM interactions, ref Jones et al. 2006 / Kaushansky et al. Chem and Biol 2008): 160 nM
Kd (Protein ABL2, most recent PM interactions, ref Jones et al. 2006 / Kaushansky et al. Chem and Biol 2008): 70 nM
Kd (Protein BCAR3, most recent PM interactions, ref Jones et al. 2006 / Kaushansky et al. Chem and Biol 2008): 1000 nM
Kd (Protein BMX, most recent PM interactions, ref Jones et al. 2006 / Kaushansky et al. Chem and Biol 2008): 520 nM
Kd (Protein FGR, most recent PM interactions, ref Jones et al. 2006 / Kaushansky et al. Chem and Biol 2008): 450 nM
Kd (Protein GRAP2, most recent PM interactions, ref Jones et al. 2006 / Kaushansky et al. Chem and Biol 2008): 960 nM
Kd (Protein GRB2, most recent PM interactions, ref Jones et al. 2006 / Kaushansky et al. Chem and Biol 2008): 76 nM
Kd (Protein ITK, most recent PM interactions, ref Jones et al. 2006 / Kaushansky et al. Chem and Biol 2008): 1510 nM
Kd (Protein NCK2, most recent PM interactions, ref Jones et al. 2006 / Kaushansky et al. Chem and Biol 2008): 780 nM
Kd (Protein PIK3R1-N, most recent PM interactions, ref Jones et al. 2006 / Kaushansky et al. Chem and Biol 2008): 510 nM
Kd (Protein PIK3R1-NC, most recent PM interactions, ref Jones et al. 2006 / Kaushansky et al. Chem and Biol 2008): 740 nM
Kd (Protein PIK3R2-N, most recent PM interactions, ref Jones et al. 2006 / Kaushansky et al. Chem and Biol 2008): 280 nM
Kd (Protein PIK3R2-NC, most recent PM interactions, ref Jones et al. 2006 / Kaushansky et al. Chem and Biol 2008): 780 nM
Kd (Protein PIK3R3-C, most recent PM interactions, ref Jones et al. 2006 / Kaushansky et al. Chem and Biol 2008): 1220 nM
Kd (Protein PIK3R3-N, most recent PM interactions, ref Jones et al. 2006 / Kaushansky et al. Chem and Biol 2008): 400 nM
Kd (Protein PIK3R3-NC, most recent PM interactions, ref Jones et al. 2006 / Kaushansky et al. Chem and Biol 2008): 300 nM
Kd (Protein PLCG1-C, most recent PM interactions, ref Jones et al. 2006 / Kaushansky et al. Chem and Biol 2008): 1930 nM
Kd (Protein PLCG2-NC, most recent PM interactions, ref Jones et al. 2006 / Kaushansky et al. Chem and Biol 2008): 1280 nM
Kd (Protein PTPN11-NC, most recent PM interactions, ref Jones et al. 2006 / Kaushansky et al. Chem and Biol 2008): 880 nM
Kd (Protein RASA1-N, most recent PM interactions, ref Jones et al. 2006 / Kaushansky et al. Chem and Biol 2008): 680 nM
Kd (Protein SH2D2A, most recent PM interactions, ref Jones et al. 2006 / Kaushansky et al. Chem and Biol 2008): 980 nM
Kd (Protein SH3BP2, most recent PM interactions, ref Jones et al. 2006 / Kaushansky et al. Chem and Biol 2008): 410 nM
Kd (Protein SYK-NC, most recent PM interactions, ref Jones et al. 2006 / Kaushansky et al. Chem and Biol 2008): 970 nM
Kd (Protein TENC1, most recent PM interactions, ref Jones et al. 2006 / Kaushansky et al. Chem and Biol 2008): 570 nM
Kd (Protein TNS3, most recent PM interactions, ref Jones et al. 2006 / Kaushansky et al. Chem and Biol 2008): 770 nM
Kd (Protein VAV1, most recent PM interactions, ref Jones et al. 2006 / Kaushansky et al. Chem and Biol 2008): 210 nM
Kd (Protein VAV2, most recent PM interactions, ref Jones et al. 2006 / Kaushansky et al. Chem and Biol 2008): 230 nM

QHPDpYLQEYSTKd [ErbB4 pY1258, N-terminally rhodamine-labeled 13-mer phosphopeptide]
Kd (protein ABL2, all original PM interactions, ref Jones et al. 2006 / Kaushansky et al. Chem and Biol 2008): 880 nM
Kd (protein PIK3R3-NC, all original PM interactions, ref Jones et al. 2006 / Kaushansky et al. Chem and Biol 2008): 2000 nM
Kd (protein PLCG1-C, all original PM interactions, ref Jones et al. 2006 / Kaushansky et al. Chem and Biol 2008): 2000 nM
Kd (protein PLCG1-NC, all original PM interactions, ref Jones et al. 2006 / Kaushansky et al. Chem and Biol 2008): 2000 nM
Kd (protein RASA1-N, all original PM interactions, ref Jones et al. 2006 / Kaushansky et al. Chem and Biol 2008): 2000 nM
Kd (protein SHC1-PTB, all original PM interactions, ref Jones et al. 2006 / Kaushansky et al. Chem and Biol 2008): 2000 nM
Kd (protein SLA, all original PM interactions, ref Jones et al. 2006 / Kaushansky et al. Chem and Biol 2008): 2000 nM
Kd (protein SYK-NC, all original PM interactions, ref Jones et al. 2006 / Kaushansky et al. Chem and Biol 2008): 2000 nM
Kd (protein VAV2, all original PM interactions, ref Jones et al. 2006 / Kaushansky et al. Chem and Biol 2008): 2000 nM
Kd (protein VAV2, ref Jones et al. 2006 / Kaushansky et al. Chem and Biol 2008): 770 nM
